The source of these data is patent publication US20190119284A1, “ErbB Inhibitors and Uses Thereof” (The Regents of the University of California, priority 2016, published 2019).

Usually inhibition stands for how much of the control response was suppressed. Low readings indicate a response near the control, high ones a response far below the control. The IC50 is the concentration needed to halve the response being measured.

Bounds are passed on as bounds.

The target in one assay is T1, AURORA-A (Homo sapiens, UniProt O14965).
T1 sequence (O14965 1-403): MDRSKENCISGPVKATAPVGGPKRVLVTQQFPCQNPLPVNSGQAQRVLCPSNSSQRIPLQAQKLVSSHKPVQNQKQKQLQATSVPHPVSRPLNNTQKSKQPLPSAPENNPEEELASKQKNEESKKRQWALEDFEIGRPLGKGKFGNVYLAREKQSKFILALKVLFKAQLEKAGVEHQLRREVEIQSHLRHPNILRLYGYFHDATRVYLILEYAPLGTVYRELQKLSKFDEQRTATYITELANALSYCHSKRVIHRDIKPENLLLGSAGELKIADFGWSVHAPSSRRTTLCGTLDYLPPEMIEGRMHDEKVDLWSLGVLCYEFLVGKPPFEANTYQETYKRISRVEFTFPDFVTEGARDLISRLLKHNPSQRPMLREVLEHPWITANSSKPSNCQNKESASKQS
The assay can be described thus: Nanosyn in vitro kinase profiling: AURORA-A. It counts as biochemical. To be noted: for inhibition at 1 µM: compound at 1 μM. The procedure: (§1) This was confirmed by in vitro profiling against a panel of kinases, with compound 2 only showing potent inhibition of EGFR and Ab1 (Table 2).
(§2) In vitro Kinome Screen. In vitro profiling of compound 2 at 100 nM was conducted by Nanosyn.

The next assay has as its target T2, CHEK1 (Homo sapiens, UniProt O14757).
T2 sequence (O14757 1-476): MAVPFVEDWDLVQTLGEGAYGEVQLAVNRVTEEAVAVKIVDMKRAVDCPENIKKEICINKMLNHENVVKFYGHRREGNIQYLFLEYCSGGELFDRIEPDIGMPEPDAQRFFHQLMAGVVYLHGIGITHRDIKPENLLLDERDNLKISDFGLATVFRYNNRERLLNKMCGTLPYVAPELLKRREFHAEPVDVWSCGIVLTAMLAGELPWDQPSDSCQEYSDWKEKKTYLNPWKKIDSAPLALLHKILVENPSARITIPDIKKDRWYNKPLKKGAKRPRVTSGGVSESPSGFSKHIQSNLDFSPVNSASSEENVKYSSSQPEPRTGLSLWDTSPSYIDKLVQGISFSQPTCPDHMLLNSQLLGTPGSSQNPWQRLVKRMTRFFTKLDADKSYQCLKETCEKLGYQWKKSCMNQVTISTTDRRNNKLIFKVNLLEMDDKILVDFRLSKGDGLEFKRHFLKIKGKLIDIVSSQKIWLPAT
The experiment in a line: Nanosyn in vitro kinase profiling: CHEK1. To be noted: for inhibition at 1 µM: compound at 1 μM. It counts as biochemical. The method, then: as §1, §2

For a further assay, the target named is IGF1R (Homo sapiens, UniProt P08069). The experiment in a line: Nanosyn in vitro kinase profiling: IGF1R. To be noted: for inhibition at 1 µM: compound at 1 μM. It counts as biochemical. The method, then:
as §1, §2

In the next assay the target is CDK2 (Homo sapiens, UniProt P24941). The assay can be described thus: Nanosyn in vitro kinase profiling: CDK2. The settings on record: for inhibition at 1 µM: compound at 1 μM. It counts as biochemical. The procedure:
as §1, §2

In another assay the target is LCK (Homo sapiens, UniProt P06239). The experiment in a line: Nanosyn in vitro kinase profiling: LCK. The settings on record: for inhibition at 1 µM: compound at 1 μM. It counts as biochemical. The method, then:
as §1, §2

A further assay addresses PKC-ALPHA (Homo sapiens, UniProt P17252). The assay can be described thus: Nanosyn in vitro kinase profiling: PKC-ALPHA. It counts as biochemical. The settings on record: for inhibition at 1 µM: compound at 1 μM. The method, then: as §1, §2
For a further assay, the target named is CK1-EPSILON (Homo sapiens, UniProt P49674). The experiment in a line: Nanosyn in vitro kinase profiling: CK1-EPSILON. It counts as biochemical. The settings on record: for inhibition at 1 µM: compound at 1 μM. The procedure: as §1, §2
CK1-EPSILON, sequence (P49674 whole entry): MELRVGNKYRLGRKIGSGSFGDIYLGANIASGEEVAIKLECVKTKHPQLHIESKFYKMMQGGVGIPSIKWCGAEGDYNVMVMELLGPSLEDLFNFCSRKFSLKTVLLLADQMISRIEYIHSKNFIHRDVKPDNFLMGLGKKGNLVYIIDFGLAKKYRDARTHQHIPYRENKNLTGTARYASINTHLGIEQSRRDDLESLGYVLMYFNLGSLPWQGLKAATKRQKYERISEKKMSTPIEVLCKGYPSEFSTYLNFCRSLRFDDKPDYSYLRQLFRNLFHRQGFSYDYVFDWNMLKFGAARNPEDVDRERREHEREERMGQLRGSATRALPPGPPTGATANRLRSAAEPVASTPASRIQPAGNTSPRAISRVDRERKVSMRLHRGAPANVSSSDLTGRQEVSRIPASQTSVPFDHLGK
For a further assay, the target named is EGFR (Homo sapiens, UniProt P00533). The assay can be described thus: Nanosyn in vitro kinase profiling: EGFR. It counts as biochemical. To be noted: for inhibition at 1 µM: compound at 1 μM. The procedure: as §1, §2
EGFR, sequence (P00533 25-1210): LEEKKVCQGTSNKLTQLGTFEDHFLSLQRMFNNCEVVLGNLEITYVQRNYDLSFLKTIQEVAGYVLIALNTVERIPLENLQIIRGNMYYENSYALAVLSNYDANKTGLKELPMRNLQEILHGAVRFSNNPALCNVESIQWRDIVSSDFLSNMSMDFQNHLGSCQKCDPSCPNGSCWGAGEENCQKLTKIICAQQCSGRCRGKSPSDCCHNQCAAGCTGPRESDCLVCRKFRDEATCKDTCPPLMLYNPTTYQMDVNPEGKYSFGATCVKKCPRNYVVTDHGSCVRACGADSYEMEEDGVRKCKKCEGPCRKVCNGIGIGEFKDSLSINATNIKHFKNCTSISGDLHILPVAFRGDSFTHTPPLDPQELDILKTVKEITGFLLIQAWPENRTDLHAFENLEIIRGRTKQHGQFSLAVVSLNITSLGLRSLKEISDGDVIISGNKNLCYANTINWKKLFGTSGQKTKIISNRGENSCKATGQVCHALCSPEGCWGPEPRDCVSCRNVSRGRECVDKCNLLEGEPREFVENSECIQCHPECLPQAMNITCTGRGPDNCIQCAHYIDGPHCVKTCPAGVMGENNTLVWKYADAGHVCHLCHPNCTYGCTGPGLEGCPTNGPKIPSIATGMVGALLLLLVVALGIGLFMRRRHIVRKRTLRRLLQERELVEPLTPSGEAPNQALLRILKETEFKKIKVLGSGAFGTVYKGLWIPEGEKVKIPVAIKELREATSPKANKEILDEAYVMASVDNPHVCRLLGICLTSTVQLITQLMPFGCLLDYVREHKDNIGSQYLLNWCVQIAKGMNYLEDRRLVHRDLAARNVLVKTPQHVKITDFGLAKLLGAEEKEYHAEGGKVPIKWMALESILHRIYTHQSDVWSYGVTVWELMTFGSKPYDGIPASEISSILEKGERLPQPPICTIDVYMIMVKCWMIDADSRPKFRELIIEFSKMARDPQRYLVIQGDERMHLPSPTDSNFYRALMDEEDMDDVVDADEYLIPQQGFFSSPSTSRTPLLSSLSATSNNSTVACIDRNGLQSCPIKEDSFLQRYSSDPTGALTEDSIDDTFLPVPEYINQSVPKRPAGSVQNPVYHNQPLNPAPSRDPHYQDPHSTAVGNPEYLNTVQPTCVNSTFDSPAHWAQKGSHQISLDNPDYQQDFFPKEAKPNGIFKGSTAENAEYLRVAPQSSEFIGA
The target of the next assay is EPH-A2 (Homo sapiens, UniProt P29317). The assay can be described thus: Nanosyn in vitro kinase profiling: EPH-A2. It counts as biochemical. To be noted: for inhibition at 1 µM: compound at 1 μM. The method, then:
as §1, §2

For assay [1], the system named is HER2/HER3 heterodimer signaling in MCF-7 cells. The assay can be described thus: HER2/HER3 signaling in MCF-7 cells, pre-treat vs simultaneous NRG addition. It counts as cell-based. The method, then: FIGS. 2A-2D. […] FIG. 2B: NRG rescues the 72 h proliferation of CW-2 cells, which contain an activating mutation in HER3 (E928G), from HER2 inhibitors (mean±SD, n=3).
FIG. 17. MCF-7 cells were serum starved for 24 h and then either treated with compound 3 for 15 min followed by a 15 min NRG stimulation (15 min pre-treat), or compound 3 and NRG were added simultaneously for 15 min (simultaneous addition).

The subject of assay [2] is 2YF/3wt + IL-3 Ba/F3 cells. The assay can be described thus: Ba/F3 proliferation assay, 2YF/3wt + IL-3. It counts as cell-based. The settings on record: Mus musculus, BaF3; Table 4; ± S.D., n = 3; 48 h Cell Titer Glo. The method, then:
To validate the screen and test the effectiveness of counter-screening with either the same 2YF/3wt Ba/F3 cell line or the parental Ba/F3's in the presence of IL-3 to remove cytotoxic primary hits, we first tested a panel of kinase inhibitors with established mechanisms of action.
(§3) Proliferation Assays. For adherent cell lines, cells were plated onto opaque white 96 well plates (Greiner cat #655083) and allowed to adhere overnight. The following day media was changed to fresh media that contained either DMSO or the indicated concentration of drug plus NRG (50 ng/mL final concentration) as indicated. Plates were incubated at 37° C. for 72 h and proliferation was read out using Cell Titer Glo (Promega) according to the manufacturer's protocol. For Ba/F3 cell proliferation, cells, drug dilution, and any necessary growth factors (10 ng/mL IL-3 or 6.25 ng/mL NRG) were combined in a well of a 96 well plate. Plates were incubated at 37° C. for 48 h and proliferation was read out using Cell Titer Glo according to the manufacturer's protocol. For all normalized assays, proliferation was normalized to the DMSO control condition. All graphs were plotted in GraphPad Prism 6 and fit with a non-linear regression of the log(inhibitor) vs response with a variable slope where shown. All graphs are averages (+/−standard deviation) of biological triplicates each performed in technical triplicate unless otherwise noted. If only one biological replicate was performed standard deviations were derived from the technical replicates.
A general note: In ATP-based viability assays light output follows the ATP content of the culture.

Assay [3] relates to HER2YF/HER3E928G (2YF/3EG) Ba/F3 cells. The assay can be described thus: Ba/F3 proliferation assay, 2YF/3EG +/- NRG. The settings on record: + NRG vs no NRG. It counts as cell-based.
Description: Consistent with the results in the HER2 overexpressing cell lines, CW-2 cells that harbor a HER3-activating mutation were equally sensitive to compound 3+/−NRG in both proliferation and signaling assays (FIGS. 6A-6B). […] To further evaluate the potential of compound 3 against HER2 mutants within a HER2/HER3 heterodimer we transduced wt HER3 containing Ba/F3 cells with reported HER2 oncogenic mutants in the HER2YF construct.
For HER2YF/3EG Ba/F3 cells were selected according to the protocol for the HER2YF/3TM Ba/F3's with the exception that no NRG was supplemented in the media during IL-3 independent selection.
as §3

EPH-A2, sequence (P29317 24-976, species assumed): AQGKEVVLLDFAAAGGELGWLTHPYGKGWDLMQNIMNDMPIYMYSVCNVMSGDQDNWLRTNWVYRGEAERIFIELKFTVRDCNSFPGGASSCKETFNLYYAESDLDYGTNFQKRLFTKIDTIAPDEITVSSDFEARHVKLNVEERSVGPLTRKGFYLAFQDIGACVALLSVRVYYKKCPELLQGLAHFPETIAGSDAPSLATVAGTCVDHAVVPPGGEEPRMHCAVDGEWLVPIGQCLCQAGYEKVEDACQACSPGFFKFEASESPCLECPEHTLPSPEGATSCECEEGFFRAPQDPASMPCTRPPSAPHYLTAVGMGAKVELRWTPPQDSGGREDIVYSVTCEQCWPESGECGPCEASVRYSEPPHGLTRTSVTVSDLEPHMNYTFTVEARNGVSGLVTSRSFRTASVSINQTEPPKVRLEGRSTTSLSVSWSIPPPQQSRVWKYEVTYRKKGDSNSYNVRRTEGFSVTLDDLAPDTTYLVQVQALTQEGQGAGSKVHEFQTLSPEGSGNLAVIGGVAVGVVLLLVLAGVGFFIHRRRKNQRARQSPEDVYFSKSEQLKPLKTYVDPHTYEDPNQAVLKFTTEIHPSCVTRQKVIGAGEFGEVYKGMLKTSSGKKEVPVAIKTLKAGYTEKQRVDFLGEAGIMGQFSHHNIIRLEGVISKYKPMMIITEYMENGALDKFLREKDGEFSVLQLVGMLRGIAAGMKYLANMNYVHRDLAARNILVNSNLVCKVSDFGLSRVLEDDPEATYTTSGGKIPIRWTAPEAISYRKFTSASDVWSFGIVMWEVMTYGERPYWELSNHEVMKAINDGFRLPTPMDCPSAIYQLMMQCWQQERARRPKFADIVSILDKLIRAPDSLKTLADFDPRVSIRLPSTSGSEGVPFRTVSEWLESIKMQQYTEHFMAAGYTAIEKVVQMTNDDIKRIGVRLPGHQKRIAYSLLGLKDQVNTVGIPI
IGF1R, sequence (P08069 31-1367): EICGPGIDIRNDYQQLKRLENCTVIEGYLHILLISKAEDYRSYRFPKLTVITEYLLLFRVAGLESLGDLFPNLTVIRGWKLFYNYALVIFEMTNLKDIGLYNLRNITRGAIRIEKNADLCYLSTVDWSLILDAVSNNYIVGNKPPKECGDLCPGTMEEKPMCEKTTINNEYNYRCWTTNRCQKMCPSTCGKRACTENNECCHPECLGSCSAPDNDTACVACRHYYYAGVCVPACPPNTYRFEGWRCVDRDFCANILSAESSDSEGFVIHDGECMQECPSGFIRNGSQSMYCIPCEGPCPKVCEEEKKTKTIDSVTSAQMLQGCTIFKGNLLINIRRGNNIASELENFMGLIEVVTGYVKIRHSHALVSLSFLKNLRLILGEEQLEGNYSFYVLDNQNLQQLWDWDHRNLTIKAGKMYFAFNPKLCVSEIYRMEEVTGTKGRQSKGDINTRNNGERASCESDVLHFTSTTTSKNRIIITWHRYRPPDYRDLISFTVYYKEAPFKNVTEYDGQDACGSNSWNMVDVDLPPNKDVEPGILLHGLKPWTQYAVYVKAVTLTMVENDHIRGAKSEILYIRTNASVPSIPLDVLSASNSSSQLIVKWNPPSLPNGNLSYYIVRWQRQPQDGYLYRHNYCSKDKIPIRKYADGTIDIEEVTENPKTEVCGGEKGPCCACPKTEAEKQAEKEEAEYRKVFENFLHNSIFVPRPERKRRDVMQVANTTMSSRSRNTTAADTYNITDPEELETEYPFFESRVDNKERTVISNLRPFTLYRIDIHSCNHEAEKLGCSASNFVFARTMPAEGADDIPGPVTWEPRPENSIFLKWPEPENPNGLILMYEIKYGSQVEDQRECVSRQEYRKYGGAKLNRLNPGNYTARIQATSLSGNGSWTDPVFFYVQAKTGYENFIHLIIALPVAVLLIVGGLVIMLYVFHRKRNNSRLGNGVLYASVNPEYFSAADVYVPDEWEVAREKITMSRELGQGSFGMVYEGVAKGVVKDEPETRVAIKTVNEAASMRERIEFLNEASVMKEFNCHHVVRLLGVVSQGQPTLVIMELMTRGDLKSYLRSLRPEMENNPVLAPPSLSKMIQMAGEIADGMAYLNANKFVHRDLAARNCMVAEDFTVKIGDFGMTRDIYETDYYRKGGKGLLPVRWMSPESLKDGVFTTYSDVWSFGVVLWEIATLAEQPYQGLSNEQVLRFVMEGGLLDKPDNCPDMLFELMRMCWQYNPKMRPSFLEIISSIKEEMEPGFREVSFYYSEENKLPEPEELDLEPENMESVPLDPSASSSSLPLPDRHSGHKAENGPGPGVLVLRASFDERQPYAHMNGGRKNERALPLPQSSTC
LCK, sequence (P06239 whole entry): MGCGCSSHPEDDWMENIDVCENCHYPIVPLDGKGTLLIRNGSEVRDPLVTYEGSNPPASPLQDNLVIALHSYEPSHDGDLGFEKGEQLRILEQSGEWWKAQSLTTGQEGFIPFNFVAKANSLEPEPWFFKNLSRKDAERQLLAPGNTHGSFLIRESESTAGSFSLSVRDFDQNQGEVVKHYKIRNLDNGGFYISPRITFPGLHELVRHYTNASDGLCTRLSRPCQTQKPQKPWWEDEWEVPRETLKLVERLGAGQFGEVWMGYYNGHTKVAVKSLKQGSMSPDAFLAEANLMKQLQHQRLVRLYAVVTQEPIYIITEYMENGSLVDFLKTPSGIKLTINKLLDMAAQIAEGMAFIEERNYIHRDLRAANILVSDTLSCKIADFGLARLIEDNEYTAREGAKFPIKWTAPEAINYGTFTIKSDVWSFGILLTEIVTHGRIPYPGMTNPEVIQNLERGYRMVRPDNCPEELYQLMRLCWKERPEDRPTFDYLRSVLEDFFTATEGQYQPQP

For `COc1ccc(-c2ccco2)cc1Nc1ncnc2[nH]nc(-c3ccco3)c12` [compound 2, 3-(furan-2-yl)-N-(5-(furan-2-yl)-2-methoxyphenyl)-1H-pyrazolo[3,4-d]pyrimidin-4-amine], the inhibition at 0.1 µM at AURORA-A (compound at 100 nM) was found to be 9.95%; on CHEK1 (compound at 100 nM) it was 0.965%; on IGF1R (compound at 100 nM), 13.3%; against CDK2 (compound at 100 nM) it was 4.14%; on LCK (compound at 100 nM) it was 74.2%; against PKC-ALPHA (compound at 100 nM), 1.24%. In addition, the values for the inhibition at 0.1 µM against CK1-EPSILON (compound at 100 nM), against EGFR (compound at 100 nM) and on EPH-A2 (compound at 100 nM) were 3.45%, 95.6% and 2.42%, respectively. For the same compound, the inhibition at 1 µM on AURORA-A turned out to be 47.2%; on CHEK1, 2.27%; on IGF1R it was 53.3%; on CDK2, 17.6%; on LCK it was 93.6%; at PKC-ALPHA it was 5.57%. In addition, the inhibition at 1 µM against CK1-EPSILON was found to be 24.1%; against EGFR, 96.9%; against EPH-A2 it was 21%.
In the case of `COc1ccc(-c2ccoc2)cc1Nc1ncnc2[nH]cc(-c3cc[nH]n3)c12` [compound 3, N-(5-(furan-3-yl)-2-methoxyphenyl)-5-(1H-pyrazol-3-yl)-7H-pyrrolo[2,3-d]pyrimidin-4-amine], the inhibition at 1 µM at AURORA-A stood at 31%; against CHEK1 it was 10%; against IGF1R it was 46%; against CDK2, 10%; on LCK it was 98%; at PKC-ALPHA, 30%. The inhibition at 1 µM was 11% against CK1-EPSILON, 99% on EGFR and 28% at EPH-A2. Besides, the “shift in ability to inhibit signaling +/- pre-incubation” value in assay [1] (MCF-7, 15 min pre-treat vs simultaneous NRG) was “little to no shift”. In assay [2], the IC50 turned out to be 2.54 ± 0.217 µM. Further, the “reduction of sensitivity on addition of NRG” value in [3] is given as “less than 5 fold”.
For the compound `CS(=O)(=O)CCNCc1ccc(-c2ccc3ncnc(Nc4ccc(OCc5cccc(F)c5)c(Cl)c4)c3c2)o1` [lapatinib], the “efficacy on signaling, 15 min pre-treat vs simultaneous addition with NRG” value in assay [1] (MCF-7, serum starved 24 h) is “reduced efficacy of lapatinib when simultaneously added with NRG”. In assay [2], the IC50 was over 3.33 µM. The “reduction of sensitivity on addition of NRG” value in [3] is 55 fold.
